pIC50: −log10 of the molar value. ≈ marks a conversion by molar mass, not a printed value.
Experiments:
[1] = tested on: T47D (H1047R mutant) cells; experiment: CellTiter-Glo 2.0 cell viability assay, T47D; format: cell-based; settings: Homo sapiens, 72 hours, CTG
Method: (§1) The ability of a Compound 1 to inhibit the formation of pAKT was measured using alphaLISA Surefire Ultra AKT 1/2/3 (pS473) Assay Kit (#ALSU-PAKT-B50K) was obtained from Perkin Elmer (Waltham, MA). The ability of Compound 1 to decrease the viability of cells was measured using CellTiter-Glo 2.0 (CTG) Luminescent Cell Viability Assay (#G9241) obtained from Promega (Madison, WI).
To prepare assay plates for viability assays, cells were trypsinized, resuspended in fresh media, and viable cells were counted utilizing trypan blue exclusion. […]
Assay day 1, cells were dosed using an Echo Liquid Handler (Beckman Coulter) with compounds at a 10 μm starting concentration and serially diluted (1:4) for a total of 10concentrations. […] After 72 hours of treatment, cell plates were equilibrated to room temperature before adding 15 μl of CTG to each well, plates were then covered in aluminum foil to protect from light, incubated at room temperature for 30 minutes on a microtiter plate shaker, and luminescence readings were collected using a CLARIOstar microplate reader (BMG Labtech, Germany). Percent of vehicle control values were plotted as log (inhibitor) vs. response-Variable slope (four parameters) for curve fitting and IC50 values were determined using XLfit.

[2] = Solubility of amorphous solids of Compound 1 in single solvents at room temperature; format: physicochemical
Method: The amorphous solids of Compound 1 as prepared in Example 1 was measured in 20 single solvents at room temperature and crystallization screening was then conducted in the same set of solvents. For each solvent tested, a slurry of the amorphous solids and the solvent was prepared with a […] and the amorphous solids were allowed to dissolve. The slurry was then agitated with a stir bar for approximately 1 hour at room temperature. The wet solids were then analyzed by powder X-ray diffraction (PXRD). The solids were collected and dried under vacuum for 1 day and the crystalline form was confirmed by PXRD. Only one crystalline form was obtained and designated as Form 1.

[3] = Dynamic vapor sorption (DVS) of crystalline form; format: physicochemical; settings: crystalline form (Form 1)
Method: (§2) The crystalline form of Compound 1 is highly crystalline and has a needle/thin rod-like morphology. FIG. 2A and 2B are polarized light microscopy (PLM) images of this crystalline form of Compound 1. Additionally, the crystalline form of Compound 1 was characterized by PXRD, DSC, TGA, ^1H-NMR, HPLC, and DVS. The solvent used for the ^1H-NMR was methanol.
(§3) The crystalline form has a high melting temperature (˜177-180° C.) with no thermal degradation until >210° C. The crystalline form appears to be an anhydrous form and is non-hygroscopic. The crystalline form was analyzed by PXRD before and after DVS.

[4] = tested on: phospho-AKT (pAKT) in T47D (H1047R) cells; experiment: pAKT alphaLISA Surefire Ultra AKT 1/2/3 (pS473) assay in T47D cells; format: cell-based; settings: Homo sapiens, 24 hr treatment
Method: as §1
To prepare assay plates for pAKT alphaLISA assays, cells were trypsinized, resuspended in fresh media, and viable cells were counted utilizing trypan blue exclusion. Prior to seeding, cells were washed with PBS and resuspended in HBSS (Gibco, #14025092). […]
Immediately after seeding, cells were dosed using an Echo Liquid Handler (Beckman Coulter) with compounds at a 10.4 μm starting concentration and serially diluted (1:4) for a total of 10concentrations. […] Plates were then imaged the following day using a CLARIOstar microplate reader (BMG Labtech, Germany).
Percent of control values were calculated by subtracting the average signal from the positive control (alpelisib) treated wells from all treated wells (including DMSO control wells) and then divided by the average signal from the vehicle DMSO treated control wells. Percent of vehicle control values were plotted as log (inhibitor) vs. response-Variable slope (four parameters) for curve fitting and IC50 values were determined using XLfit.

[5] = Thermal stability (DSC/TGA) of crystalline form; format: physicochemical; settings: crystalline form (Form 1)
Method: as §2, §3

## Cc1cc([C@@H](C)Nc2ccc(Cl)nc2C(=O)O)c2nc(N3CCOCC3)c(C#N)nc2c1 [Compound 1, (R)-6-chloro-3-((1-(2-cyano-7-methyl-3-morpholinoquinoxalin-5-yl)ethyl)amino) picolinic acid]
[1]
  pIC50: 7.62
[2]; organic solvent or mixture, thermodynamic from solid, 1,4-Dioxane
  solubility: > 221 mg/mL
[2]; organic solvent or mixture, thermodynamic from solid, 2-MeTHF
  solubility: > 230 mg/mL
[2]; organic solvent or mixture, thermodynamic from solid, ACN
  solubility: > 202 mg/mL
[2]; organic solvent or mixture, thermodynamic from solid, DCM
  solubility: > 192 mg/mL
[2]; organic solvent or mixture, thermodynamic from solid, DMF
  solubility: > 216 mg/mL
[2]; organic solvent or mixture, thermodynamic from solid, DMSO
  solubility: > 241 mg/mL
[2]; organic solvent or mixture, thermodynamic from solid, EtOAc
  solubility: > 204 mg/mL
[2]; organic solvent or mixture, thermodynamic from solid, EtOH
  solubility: 43 to 53.7 mg/mL (≈ 94.9 to 119 mM)
[2]; organic solvent or mixture, thermodynamic from solid, IPA
  solubility: 14.4 to 16.8 mg/mL (≈ 31.8 to 37.1 mM)
[2]; organic solvent or mixture, thermodynamic from solid, IPAc
  solubility: > 221 mg/mL
[2]; organic solvent or mixture, thermodynamic from solid, MEK
  solubility: > 191 mg/mL
[2]; organic solvent or mixture, thermodynamic from solid, MIBK
  solubility: > 189 mg/mL
[2]; organic solvent or mixture, thermodynamic from solid, MTBE
  solubility: 102 to 221 mg/mL (≈ 226 to 488 mM)
[2]; organic solvent or mixture, thermodynamic from solid, MeOH
  solubility: > 210 mg/mL
[2]; organic solvent or mixture, thermodynamic from solid, THF
  solubility: > 215 mg/mL
[2]; organic solvent or mixture, thermodynamic from solid, acetone
  solubility: > 230 mg/mL
[2]; organic solvent or mixture, thermodynamic from solid, heptane
  solubility: < 1.3 mg/mL
[2]; organic solvent or mixture, thermodynamic from solid, nPA
  solubility: 47.1 to 58.9 mg/mL (≈ 104 to 130 mM)
[2]; organic solvent or mixture, thermodynamic from solid, toluene
  solubility: > 204 mg/mL
[2]; thermodynamic from solid, water
  solubility: < 1.3 mg/mL
[3]
  Form change by PXRD before and after DVS: no form change
  Hygroscopicity (DVS): non-hygroscopic
[3]; 80% RH
  DVS weight gain at 80% RH: 0.11%
[4]
  pIC50: 8.74
[5]
  Temperature until which no thermal degradation: > 210 °C

Reference: US20250276960A1, “CRYSTALLINE FORMS OF (R)-6-CHLORO-3-((1-(2-CYANO-7-METHYL-3-MORPHOLINOQUINOXALIN-5-YL)ETHYL)AMINO)PICOLINIC ACID” (MIRATI THERAPEUTICS, INC., priority 2024, published 2025)
